From patent US8058285B2, “Substituted pyrido [3′, 2′: 4, 5] thieno [3, 2-D] pyrimidines and pyrido [3′, 2′: 4, 5] furo [3, 2-D] pyrimidines used as inhibitors of the PDE-4 and/or the release of TNF-ALPHA” (The Medicines Company (Leipzig) GmbH, priority 2004, dated 2011)

Biological target: T1, PDE-4A (Homo sapiens, UniProt P27815)
T1 construct: PDE-4A catalytic domain comprising amino acids 342-704; made in house; host or cells: Escherichia coli
Assay: PDE-4A inhibitory assay (SPA)
Type: biochemical
Description: Human recombinant PDE-4A catalytic domain comprising amino acids 342-704 was cloned into Escherichia coli and expressed, as described by W. Richter et al., Protein Expression and Purification (2000) 19: 375-383. The other posphodiesterases were either obtained from cell lines of human origin (TPH1 monocytes line for PDE-1, MCF7 for PDE-5) or expressed recombinantly in sf9 insect cells (for PDE-3A, PDE-3B, PDE-7A and PDE-4D) in accordance with an adapted method by Luckow, V. A. et al., in: Recombinant DNA Technology & Applications., (1991) eds. Prokop, Bajpai, R. K. & Ho, C. S., pp 97-152.
The phosphodiesterase activity was determined by the SPA assay as described by the manufacturer Amersham Biosciences and by Horton J. K and Baxendale P. M., Methods Mol. Biol. (1995) 41: 91-105.
The reaction mixtures contained 100 mM Tris-HCl (pH 7.5), 5 mM MgCl2, 3.8 mM 2-mercaptoethanol, and 1 μM cAMP or cGMP as a substrate, the inhibitors at different concentrations and also further components required for the detection of the individual isoenzymes (see below). The reaction was started by adding the enzyme. The operating volume is 100 μl in the wells of a white 96-Well microtiter plate. The test substances were produced as stock solutions in DMSO. The DMSO concentration in the reaction batch was 1% v/v. The PDE activity is not impaired with this DMSO concentration. Having started the reaction by the addition of enzyme, the samples were incubated at 22° C. for 20 min. The reaction was stopped by the addition of SPA bead suspension which contains the zinc sulfate concentration provided according to the manufacturer. Then, the beads are allowed to sediment for 30 min and the plates are analyzed on the luminescence microtiter plate reader Fluostar Optima (BMG Labtechologies).
[^3H]-cAMP was used as a substrate for determining the activity of PDE-2, -3, -4 and -7 and [^3H]-cGMP for determining the activity of PDE-5. The non-specific enzyme activities were determined in the presence of 100 μM rolipram (for PDE-4) and in the presence of 100 μM IBMX (for PDE-3 and -5) and subtracted from the test values. The incubation samples of the PDE-3 assay contain 10 μM rolipram to inhibit possible contaminations by PDE-4. The PDE-2 activity is tested using a SPA assay by Amersham Biosciences in the presence of the PDE-2 activator 5 μM cGMP. […] The selectivity as to PDEs 2, 3 and 5 has a factor of 100 to 10 000.

T1 sequence (P27815 342-704): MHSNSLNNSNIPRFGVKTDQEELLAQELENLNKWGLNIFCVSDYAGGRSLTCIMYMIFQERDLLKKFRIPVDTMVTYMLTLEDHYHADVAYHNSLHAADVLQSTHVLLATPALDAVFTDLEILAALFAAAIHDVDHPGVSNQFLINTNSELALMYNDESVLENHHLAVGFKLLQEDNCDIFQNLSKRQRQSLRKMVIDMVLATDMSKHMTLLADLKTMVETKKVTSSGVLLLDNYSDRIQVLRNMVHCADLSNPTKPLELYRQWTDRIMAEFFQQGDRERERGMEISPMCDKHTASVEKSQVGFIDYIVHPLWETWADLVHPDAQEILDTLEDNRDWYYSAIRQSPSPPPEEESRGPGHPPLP

| SMILES | IC50 [nM] |
| --- | --- |
| CCOc1ccc(-c2cc(CC)c3c(n2)sc2c(OCC)nc(N4CCNCC4)nc23)cc1 [4-Ethoxy-7-(4-ethoxy-phenyl)-9-ethyl-2-(piperazin-1-yl)-pyrido[3′,2′:4,5]thieno[3,2-d]pyrimidine] | < 2 |
| CCOc1nc(N2CCNCC2)nc2c1sc1nc(-c3ccc(F)cc3)cc(C(F)(F)F)c12 [4-Ethoxy-7-(4-fluoro-phenyl)-2-piperazin-1-yl-9-trifluoromethyl-pyrido[3′,2′:4,5]thieno[3,2-d]pyrimidine] | 2 to 50 |
| CCOc1nc(N2CCNCC2)nc2c1sc1nc(-c3ccc(I)cc3)cc(C(F)(F)F)c12 [4-Ethoxy-7-(4-iodo-phenyl)-2-(piperazin-1-yl)-9-trifluoromethyl-pyrido[3′,2′:4,5]thieno[3,2-d]pyrimidine] | < 2 |
| CCOc1nc(N2CCNCC2)nc2c1sc1nc(-c3ccc(OC)cc3)cc(C(F)(F)F)c12 [4-Ethoxy-7-(4-methoxy-phenyl)-2-(piperazin-1-yl)-9-trifluoromethyl-pyrido[3′,2′:4,5]thieno[3,2-d]pyrimidine] | < 2 |
| CCOc1nc(N2CCNCC2)nc2c1sc1nc(-c3ccc(OC)cc3)nc(C)c12 [4-Ethoxy-7-(4-methoxy-phenyl)-9-methyl-2-piperazin-1-yl-thieno[2,3-d:4,5-d′]dipyrimidine] | 2 to 50 |
| CCOc1nc(N2CCNCC2)nc2c1sc1nc(-c3ccc(OC)cc3)c(Cc3ccc([N+](=O)[O-])cc3)c(C)c12 [4-Ethoxy-7-(4-methoxy-phenyl)-9-methyl-8-(4-nitro-benzyl)-2-(piperazin-1-yl)-pyrido[3′,2′:4,5]thieno[3,2-d]pyrimidine] | 2 to 50 |
| CCOc1nc(N2CCNCC2)nc2c1sc1nc(-c3ccc(C)cc3)cc(C(F)(F)F)c12 [4-Ethoxy-7-(4-methyl-phenyl)-2-(piperazin-1-yl)-9-trifluoromethyl-pyrido[3′,2′:4,5]thieno[3,2-d]pyrimidine] | < 2 |
| CCOc1nc(N2CCNCC2)nc2c1sc1nc(-c3ccc(C)cc3)cc(C(C)C)c12 [4-Ethoxy-7-(4-methyl-phenyl)-9-iso-propyl-2-(piperazin-1-yl)-pyrido[3′,2′:4,5]thieno-[3,2-d]pyrimidine] | < 2 |
| CCOc1nc(N2CCNCC2)nc2c1sc1nc(-c3ccc(SC)cc3)cc(C(F)(F)F)c12 [4-Ethoxy-7-(4-methylthiophenyl)-2-(piperazin-1-yl)-9-trifluoromethyl-pyrido[3′,2′:4,5]thieno[3,2-d]pyrimidine] | < 2 |
| CCOc1nc(N2CCNCC2)nc2c1sc1nc(-c3ccc(N4CCOCC4)cc3)cc(C(F)(F)F)c12 [4-Ethoxy-7-(4-morpholinophenyl)-2-(piperazin-1-yl)-9-trifluoromethyl-pyrido[3′,2′:4,5]thieno[3,2-d]pyrimidine] | 2 to 50 |
| CCOc1nc(N2CCNCC2)nc2c1sc1nc(-c3ccc([N+](=O)[O-])cc3)cc(C(F)(F)F)c12 [4-Ethoxy-7-(4-nitro-phenyl)-2-piperazin-1-yl-9-trifluoromethyl-pyrido[3′,2′:4,5]thieno[3,2-d]pyrimidine] | 2 to 50 |
| CCOc1nc(N2CCNCC2)nc2c1sc1nc(-c3ccc(C(F)(F)F)cc3)cc(C)c12 [4-Ethoxy-7-(4-trifluoro-methyl-phenyl)-9-methyl-2-(piperazin-1-yl)-pyrido[3′,2′:4,5]thieno[3,2-d]pyrimidine] | 2 to 50 |
| CCOc1nc(N2CCNCC2)nc2c1sc1nc(-c3ccc(OCc4ccc([N+](=O)[O-])cc4)cc3)cc(C(F)(F)F)c12 [4-Ethoxy-7-[4-(4-nitrobenzyloxy)-phenyl]-2-piperazin-1-yl-9-trifluoromethyl-pyrido[3′,2′:4,5]thieno[3,2-d]pyrimidine] | 2 to 50 |
| CCOc1nc(N2CCNCC2)nc2c1sc1nc(C)cc(-c3ccccc3)c12 [4-Ethoxy-7-methyl-9-phenyl-2-(piperazin-1-yl)-pyrido[3′,2′:4,5]thieno[3,2-d]pyrimidine] | 2 to 50 |
| CCOc1nc(N2CCNCC2)nc2c1sc1nc(-c3ccc4c(c3)OCCO4)cc(CC)c12 [4-Ethoxy-9-ethyl-7-(2,3-dihydrobenzo[b][1,4]dioxin-6-yl)-2-(piperazin-1-yl)-pyrido[3′,2′:4,5]thieno[3,2-d]pyrimidine] | < 2 |
| CCOc1nc(N2CCNCC2)nc2c1sc1nc(-c3ccc4c(c3)OCO4)cc(CC)c12 [4-Ethoxy-9-ethyl-7-(3,4-methylenedioxyphenyl)-2-piperazin-1-yl-pyrido[3′,2′:4,5]thieno-[3,2-d]pyrimidine] | < 2 |

| SMILES | IC50 [nM] |
| --- | --- |
| CCOc1nc(N2CCNCC2)nc2c1sc1nc(N3CCN(c4ncccn4)CC3)cc(CC)c12 [4-Ethoxy-9-ethyl-7-(4-(pyrimidyl-2-yl)piperazin-1-yl)-2-piperazin-1-yl-pyrido[3′,2′:4,5]thieno[3,2-d]pyrimidine] | < 2 |
| CCOc1nc(N2CCNCC2)nc2c1sc1nc(-c3ccc(I)cc3)cc(CC)c12 [4-Ethoxy-9-ethyl-7-(4-iodo-phenyl)-2-(piperazin-1-yl)-pyrido[3′,2′:4,5]thieno[3,2-d]pyrimidine] | < 2 |
| CCOc1nc(N2CCNCC2)nc2c1sc1nc(-c3ccc(OC)cc3)cc(CC)c12 [4-Ethoxy-9-ethyl-7-(4-methoxyphenyl)-2-(piperazin-1-yl)-pyrido[3′,2′:4,5]thieno[3,2-d]pyrimidine] | < 2 |
| CCOc1nc(N2CCNCC2)nc2c1sc1nc(-c3ccc(C)cc3)cc(CC)c12 [4-Ethoxy-9-ethyl-7-(4-methyl-phenyl)-2-(piperazin-1-yl)-pyrido[3′,2′:4,5]thieno[3,2-d]pyrimidine] | < 2 |
| CCOc1nc(N2CCNCC2)nc2c1sc1nc(-c3ccc(SC)cc3)cc(CC)c12 [4-Ethoxy-9-ethyl-7-(4-methylthio-phenyl)-2-(piperazin-1-yl)-pyrido[3′,2′:4,5]thieno[3,2-d]pyrimidine] | < 2 |
| CCOc1nc(N2CCNCC2)nc2c1sc1nc(N3CCN(c4ccccc4)CC3)cc(CC)c12 [4-Ethoxy-9-ethyl-7-(4-phenyl-piperazin-1-yl)-2-piperazin-1-yl-pyrido[3′,2′:4,5]thieno[3,2-d]pyrimidine] | 2 to 50 |
| CCOc1nc(N2CCNCC2)nc2c1sc1nc(-c3ccc(Oc4ccc(OC)cc4)cc3)cc(CC)c12 [4-Ethoxy-9-ethyl-7-[4-(4-methoxyphenoxy)phenyl]-2-(piperazin-1-yl)-pyrido[3′,2′:4,5]thieno[3,2-d]pyrimidine] | < 2 |
| CCOc1nc(N2CCNCC2)nc2c1sc1nc(-c3ccc(-c4cc(OC)c(OC)c(OC)c4)cc3)nc(C)c12 [4-Ethoxy-9-methyl-2-piperazin-1-yl-7-(3′,4′,5′-trimethoxybiphen-4-yl)-thieno[2,3-d:4,5-d′]dipyrimidine] | < 2 |
| CCOc1nc(N2CCNCC2)nc2c1sc1nc(-c3ccc(-c4cccnc4)cc3)nc(C)c12 [4-Ethoxy-9-methyl-2-piperazin-1-yl-7-(4-[3-pyridyl]-phenyl)-thieno[2,3-d:4,5-d′]dipyrimidine] | < 2 |
| CCOc1nc(N2CCNCC2)nc2c1sc1nc(-c3ccc(-c4ccncc4)cc3)nc(C)c12 [4-Ethoxy-9-methyl-2-piperazin-1-yl-7-(4-[4-pyridyl]-phenyl)-thieno[2,3-d:4,5-d′]dipyrimidine] | < 2 |
| CCOc1nc(N2CCNCC2)nc2c1sc1nc(-c3ccc(-c4cncnc4)cc3)nc(C)c12 [4-Ethoxy-9-methyl-2-piperazin-1-yl-7-(4-[5-pyrimidinyl]-phenyl)-thieno[2,3-d:4,5-d′]dipyrimidine] | 2 to 50 |
| CCOc1nc(N2CCNCC2)nc2c1sc1nc(-c3ccc(-c4ccn(C(=O)OC(C)(C)C)c4)cc3)nc(C)c12 [4-Ethoxy-9-methyl-2-piperazin-1-yl-7-(4-[N—BOC-3-pyrrolyl]-phenyl)-thieno[2,3-d:4,5-d′]dipyrimidine] | 2 to 50 |
| CCOc1nc(N2CCNCC2)nc2c1sc1nc(-c3ccc(OC(C)C)cc3)nc(C)c12 [4-Ethoxy-9-methyl-2-piperazin-1-yl-7-(4-iso-propoxy-phenyl)-thieno[2,3-d:4,5-d′]dipyrimidine] | 2 to 50 |
| CCOc1nc(N2CCNCC2)nc2c1sc1nc(-c3cccc4ccccc34)nc(C)c12 [4-Ethoxy-9-methyl-7-(1-naphthyl)-2-piperazin-1-yl-thieno[2,3-d:4,5-d′]dipyrimidine] | 2 to 50 |
| CCOc1nc(N2CCNCC2)nc2c1sc1nc(-c3ccc4c(c3)OCO4)cc(C)c12 [4-Ethoxy-9-methyl-7-(3,4-methylenedioxyphenyl)-2-piperazin-1-yl-pyrido[3′,2′:4,5]thieno-[3,2-d]pyrimidine] | 2 to 50 |
